Laboratory results from patent US9695155B2, “Herbicidal substituted pyrimidinyloxy benzene compounds” (E. I. DU PONT DE NEMOURS AND COMPANY, priority 2013, dated 2017).

Key:
barnyardgrass [1] = assay: Test A preemergence; assay type: in vivo, Echinochloa crus-galli; details: Echinochloa crus-galli, pre-emergence, 240 h
Outline: (§1)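 Greenhouse pot test, loam/sand soil. Formulation: non-phytotoxic solvent mix plus surfactant. Pre: directed spray onto soil after sowing. Post: plants at 1–2 leaf, 2–10 cm. Rated visually vs untreated controls at ~10 d, 0 (no effect) to 100 (complete control).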

large (Lg) crabgrass [2] = assay: Test A preemergence; assay type: in vivo, Digitaria sanguinalis; details: Digitaria sanguinalis, pre-emergence, 240 h
Outline: as §1

morningglory [3] = assay: Test A preemergence; assay type: in vivo, Ipomoea spp.
Outline: as §1

corn = assay: Test A preemergence; assay type: in vivo, Zea mays; details: Zea mays, pre-emergence, 240 h
Outline: as §1

large (Lg) crabgrass [4] = assay: Test A postemergence; assay type: in vivo, Digitaria sanguinalis; details: Digitaria sanguinalis, post-emergence, 240 h
Outline: as §1

morningglory [5] = assay: Test A postemergence; assay type: in vivo, Ipomoea spp.; details: Ipomoea, post-emergence, 240 h
Outline: as §1

wheat = assay: Test A postemergence; assay type: in vivo, Triticum aestivum; details: Triticum aestivum, post-emergence, 240 h
Outline: as §1

Heteranthera limosa = assay: Test B flooded paddy test; assay type: in vivo; details: Heteranthera limosa, Flood, 250 g ai/ha; 0 to 100 scale where 0 is no effect and 100 is complete control; read-out: Plant response rating, Ducksalad
Outline: (§2)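 Post-emergence paddy-water application at the 2-leaf stage, with 3 cm flood kept for the whole test. Response was judged visually relative to controls after 13 to 15 greenhouse days, 0 indicating no effect and 100 complete control.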

barnyardgrass [6] = assay: Test B flooded paddy test; assay type: in vivo, Echinochloa crus-galli; details: Echinochloa crus-galli; Flood, 250 g ai/ha; 0 to 100 scale where 0 is no effect and 100 is complete control; read-out: Plant response rating, Barnyardgrass
Outline: as §2

blackgrass [7] = assay: Test C preemergence; assay type: in vivo, Alopecurus myosuroides; details: Alopecurus myosuroides, pre-emergence
Outline: (§3)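 Rated visually on 0–100 (100 = complete control) after 13–15 days under glass. Treatments went onto freshly seeded loam/sand soil or onto emerged plants at the 1- to 4-leaf stage, using a surfactant-containing solvent formulation.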

Italian ryegrass = assay: Test C preemergence; assay type: in vivo, Lolium multiflorum; details: Lolium multiflorum, pre-emergence
Outline: as §3

wheat, winter = assay: Test C preemergence; assay type: in vivo, Triticum aestivum; details: Triticum aestivum, pre-emergence
Outline: as §3

large (Lg) crabgrass [8] = assay: Test C preemergence; assay type: in vivo, Digitaria sanguinalis; details: Digitaria sanguinalis, pre-emergence
Outline: as §3

blackgrass [9] = assay: Test C postemergence; assay type: in vivo, Alopecurus myosuroides; details: Alopecurus myosuroides, post-emergence
Outline: as §3

johnsongrass = assay: Test C postemergence; assay type: in vivo, Sorghum halepense; details: Sorghum halepense, post-emergence
Outline: as §3

wild oat = assay: Test C postemergence; assay type: in vivo, Avena fatua; details: Avena fatua, post-emergence
Outline: as §3

[10] = 125 g ai/ha, 0 to 100 scale where 0 is no effect and 100 is complete control, read-out: Plant response rating, Crabgrass, Large
[11] = 125 g ai/ha, 0 to 100 scale where 0 is no effect and 100 is complete control

`N#Cc1cccc(Oc2ncc(Cl)cn2)c1-n1cc(C(F)(F)F)cn1` [Compound 58, 3-[(5-chloro-2-pyrimidinyl)oxy]-2-[4-(trifluoromethyl)-1H-pyrazol-1-yl]benzonitrile] showed a pest or weed control at 125 g/ha (barnyardgrass [1]; 125 g ai/ha, 0 to 100 scale where 0 is no effect and 100 is complete control, read-out: Plant response rating, Barnyardgrass) of 100%, a pest or weed control at 500 g/ha (barnyardgrass [1]; 500 g ai/ha, 0 to 100 scale, 0 no effect, 100 complete control, approx. 10 days, read-out: Barnyardgrass plant response rating) of 100% and a pest or weed control at 125 g/ha (large (Lg) crabgrass [2]; [10]) of 100%. For the same compound, the pest or weed control at 500 g/ha (large (Lg) crabgrass [2]; 500 g ai/ha, 0 to 100 scale, 0 no effect, 100 complete control, approx. 10 days, read-out: Crabgrass, Large plant response rating) was 100%, the “Plant response rating, Morningglory” value (morningglory [3]; [11]) was 100 and the pest or weed control at 500 g/ha (morningglory [3]; Ipomoea, pre-emergence, 240 h, 500 g ai/ha, 0 to 100 scale, 0 no effect, 100 complete control, approx. 10 days, read-out: Morningglory plant response rating) was 100%. For the same compound, the Corn plant response rating (crop injury, 0 = no effect, 100 = complete kill) at 125 g/ha (corn; [11]) was 40%, the plant injury at 500 g/ha (corn; 500 g ai/ha, 0 to 100 scale, 0 no effect, 100 complete control, approx. 10 days, read-out: Corn plant response rating) was 70% and the pest or weed control at 125 g/ha (large (Lg) crabgrass [4]; [10]) was 100%. It also gave a pest or weed control at 500 g/ha (large (Lg) crabgrass [4]; 500 g ai/ha, 0 to 100 scale, 0 no effect, 100 complete control, read-out: Plant response rating Crabgrass, Large) of 100%, a pest or weed control at 125 g/ha (morningglory [5]; 125 g ai/ha, 0 to 100 scale where 0 is no effect and 100 is complete control, read-out: Plant response rating, Morningglory) of 100% and a pest or weed control at 500 g/ha (morningglory [5]; 500 g ai/ha, 0 to 100 scale, 0 no effect, 100 complete control, read-out: Plant response rating Morningglory) of 100%. For the same compound, the plant injury at 125 g/ha (wheat; 125 g ai/ha, 0 to 100 scale where 0 is no effect and 100 is complete control, read-out: Plant response rating, Wheat) was 90%, the plant injury at 500 g/ha (wheat; 500 g ai/ha, 0 to 100 scale, 0 no effect, 100 complete control, read-out: Plant response rating Wheat) was 100% and the pest or weed control at 250 g/ha (Heteranthera limosa) was 90%. It also gave a pest or weed control at 250 g/ha (barnyardgrass [6]) of 80%, a pest or weed control at 62 g/ha (blackgrass [7]; 62 g ai/ha, preemergence, scale 0 (no effect) to 100 (complete control), read-out: Blackgrass plant response rating) of 90% and a pest or weed control at 125 g/ha (blackgrass [7]; 125 g ai/ha, preemergence, scale 0 (no effect) to 100 (complete control), read-out: Blackgrass plant response rating) of 90%. The pest or weed control at 250 g/ha (blackgrass [7]; 250 g ai/ha, preemergence, scale 0 (no effect) to 100 (complete control), read-out: Blackgrass plant response rating) was 90%, the pest or weed control at 31 g/ha (blackgrass [7]; Preemergence, 31 g ai/ha, scale 0 to 100, 0 no effect, 100 complete control, read-out: Plant response rating, Blackgrass) was 90% and the pest or weed control at 62 g/ha (Italian ryegrass; 62 g ai/ha, preemergence, scale 0 (no effect) to 100 (complete control), read-out: Ryegrass, Italian plant response rating) was 90%. For the same compound, the pest or weed control at 125 g/ha (Italian ryegrass; 125 g ai/ha, preemergence, scale 0 (no effect) to 100 (complete control), read-out: Ryegrass, Italian plant response rating) was 90%, the pest or weed control at 250 g/ha (Italian ryegrass; 250 g ai/ha, preemergence, scale 0 (no effect) to 100 (complete control), read-out: Ryegrass, Italian plant response rating) was 90% and the pest or weed control at 31 g/ha (Italian ryegrass; Preemergence, 31 g ai/ha, scale 0 to 100, 0 no effect, 100 complete control, read-out: Plant response rating, Ryegrass, Italian) was 90%. It also gave a plant injury at 62 g/ha (wheat, winter; 62 g ai/ha, preemergence, scale 0 (no effect) to 100 (complete control), read-out: Wheat plant response rating) of 80%, a plant injury at 125 g/ha (wheat, winter; 125 g ai/ha, preemergence, scale 0 (no effect) to 100 (complete control), read-out: Wheat plant response rating) of 80% and a plant injury at 250 g/ha (wheat, winter; 250 g ai/ha, preemergence, scale 0 (no effect) to 100 (complete control), read-out: Wheat plant response rating) of 90%. It also gave a plant injury at 31 g/ha (wheat, winter; Preemergence, 31 g ai/ha, scale 0 to 100, 0 no effect, 100 complete control, read-out: Plant response rating, Wheat) of 45%, a pest or weed control at 62 g/ha (large (Lg) crabgrass [8]; 62 g ai/ha, preemergence, scale 0 (no effect) to 100 (complete control), read-out: Crabgrass, Large plant response rating) of 100% and a pest or weed control at 125 g/ha (large (Lg) crabgrass [8]; 125 g ai/ha, preemergence, scale 0 (no effect) to 100 (complete control), read-out: Crabgrass, Large plant response rating) of 100%. For the same compound, the pest or weed control at 250 g/ha (large (Lg) crabgrass [8]; 250 g ai/ha, preemergence, scale 0 (no effect) to 100 (complete control), read-out: Crabgrass, Large plant response rating) was 100%, the pest or weed control at 31 g/ha (large (Lg) crabgrass [8]; Preemergence, 31 g ai/ha, scale 0 to 100, 0 no effect, 100 complete control, read-out: Plant response rating, Crabgrass, Large) was 100% and the pest or weed control at 125 g/ha (blackgrass [9]; 125 g ai/ha, postemergence, read-out: Plant response rating (0 to 100), Blackgrass) was 30%. It also gave a pest or weed control at 250 g/ha (blackgrass [9]; 250 g ai/ha, postemergence, read-out: Plant response rating (0 to 100), Blackgrass) of 55%, a pest or weed control at 31 g/ha (blackgrass [9]; Postemergence, 31 g ai/ha, scale 0 to 100 (0 no effect, 100 complete control), 13 to 15 days, read-out: Plant response rating, Blackgrass) of 10% and a pest or weed control at 62 g/ha (blackgrass [9]; Postemergence, 62 g ai/ha, scale 0 to 100 (0 no effect, 100 complete control), read-out: Plant response rating, Blackgrass) of 15%. The pest or weed control at 125 g/ha (johnsongrass; 125 g ai/ha, postemergence, read-out: Plant response rating (0 to 100), Johnsongrass) was 35%, the pest or weed control at 250 g/ha (johnsongrass; 250 g ai/ha, postemergence, read-out: Plant response rating (0 to 100), Johnsongrass) was 85% and the pest or weed control at 31 g/ha (johnsongrass; Postemergence, 31 g ai/ha, scale 0 to 100 (0 no effect, 100 complete control), 13 to 15 days, read-out: Plant response rating, Johnsongrass) was 15%. For the same compound, the pest or weed control at 62 g/ha (johnsongrass; Postemergence, 62 g ai/ha, scale 0 to 100 (0 no effect, 100 complete control), read-out: Plant response rating, Johnsongrass) was 15%, the pest or weed control at 125 g/ha (wild oat; 125 g ai/ha, postemergence, read-out: Plant response rating (0 to 100), Oat, Wild) was 45% and the pest or weed control at 250 g/ha (wild oat; 250 g ai/ha, postemergence, read-out: Plant response rating (0 to 100), Oat, Wild) was 55%. For the same compound, the pest or weed control at 31 g/ha (wild oat; Postemergence, 31 g ai/ha, scale 0 to 100 (0 no effect, 100 complete control), 13 to 15 days, read-out: Plant response rating, Oat, Wild) was 35% and the pest or weed control at 62 g/ha (wild oat; Postemergence, 62 g ai/ha, scale 0 to 100 (0 no effect, 100 complete control), read-out: Plant response rating, Oat, Wild) was 40%.
